Measurements from patent US6255347A (priority 1997, dated 2001).
“And” between values parts separate entries of the source, which are not always exact repeats. Identical values can stand only once. Counter-ions that a name gives are not always drawn. Like-named read-outs stand apart in the source and are kept apart here. *1 amine or outer side, *2 acyl side, *3 side chain or, on linkers, in order; H or OH if unused. Where a SMILES comes first, the peptide text is derived from it. Bridges are numbered along the chain shown (N, C = ends). Roman numbers before positions name the chains, in order. [ ]: non-standard residue; d: D form. Actinocin(9to1) = Cc1c2oc3c(C)ccc(C(=O)[*:1])c3nc-2c(C(=O)[*:2])c(N)c1=O; NMeV = CN[C@H](C(=O)O)C(C)C; Sar = CNCC(=O)O

Assays:
[1] = test system: APPs secretion by NIH 3T3 cell lines; settings: 50 μM; for Density of APPs band: 20 h culture, n = 2, mean ± S.D.
[2] = cited from earlier work

CC(C(=O)O)c1cccc(Oc2ccccc2)c1 (stereo not shown) [fenoprofen]
APPs secretion (in words) ([1]; 20 h): increased APPs secretion

CN1C(C(=O)Nc2ccccn2)=C(O)c2ccccc2S1(=O)=O [Proxicam]
Density of APPs band [1]: 3.29 ± 0.77

C[C@H](C(=O)O)c1ccc(-c2ccccc2)c(F)c1 [S-Flubiprofen]
Density of APPs band [1]: 2.37 ± 0.66

Cc1c2oc3c(C)ccc(C(=O)N[C@@H]4C(=O)N[C@H](C(C)C)C(=O)N5CCC[C@H]5C(=O)N(C)CC(=O)N(C)[C@@H](C(C)C)C(=O)O[C@@H]4C)c3nc-2c(C(=O)N[C@@H]2C(=O)N[C@H](C(C)C)C(=O)N3CCC[C@H]3C(=O)N(C)CC(=O)N(C)[C@@H](C(C)C)C(=O)O[C@@H]2C)c(N)c1=O [Actinomycin D] (I: T[dV]P[Sar][NMeV] / II: T[dV]P[Sar][NMeV]; ester I:1-I:C, II:1-II:C; linker I:N-II:N via Actinocin(9to1))
elimination half-life ([2]; in vivo): about 36 hr | excreted in urine ([2]; in vivo): 10% | excreted intact into the bile (in words) ([2]; in vivo): Half of the dose | passage of blood-brain barrier ([2]; in vivo): does not pass the blood-brain barrier

CO[C@@]12[C@H](COC(N)=O)C3=C(C(=O)C(C)=C(N)C3=O)N1C[C@@H]1N[C@@H]12 [Mitomycin]
time required to reduce the serum concentration by 50% ([2]; human, in vivo, iv): 17 min | clearance from serum (in words) ([2]; in vivo, iv): rapidly cleared from the serum | excreted in urine ([2]; in vivo): Approximately 10%

CC[C@]1(O)C[C@H]2CN(CCc3c([nH]c4ccccc34)[C@@](C(=O)OC)(c3cc4c(cc3OC)N(C=O)[C@H]3[C@@](O)(C(=O)OC)[C@H](OC(C)=O)[C@]5(CC)C=CCN6CC[C@]43[C@@H]65)C2)C1 [Vincristine]
concentration in blood cells (in words) ([2]; in vivo): extensively concentrated in platelets and to a lesser extent in leukocytes and erythrocytes | absorption (in words) ([2]; oral): Unpredictable absorption

COc1cccc2c1C(=O)c1c(O)c3c(c(O)c1C2=O)C[C@@](O)(C(C)=O)C[C@@H]3O[C@H]1C[C@H](N)[C@H](O)[C@H](C)O1 [Daunorubicin, 5,12-Naphthacenedione, (8S-cis)-8-acetyl-10-[(3-amino-2,3,6-trideoxy-α-L-lyxo-hexanopyranosyl)oxy]-7,8,9,10-tetrahydro-6,8, 11-trihydroxy-10-methoxy-, hydrochloride]
absorption (in words) ([2]; in vivo, po): Oral absorption is poor | secreted into the bile ([2]; in vivo): ~40%

C[C@@H](C(=O)O)c1ccc(-c2ccccc2)c(F)c1 [R-Flubiprofen]
Density of APPs band [1]: 3.30 ± 0.81

C[C@H](C(=O)O)c1cccc(C(=O)c2ccccc2)c1 [S-Ketoprofen]
Density of APPs band [1]: 2.99 ± 0.57 and 3.76 ± 1.26

CC(C(=O)O)c1cccc(C(=O)c2ccccc2)c1 (stereo not shown) [RS-Ketoprofen]
Density of APPs band [1]: 3.67 ± 0.27 and 2.94 ± 0.98

O=C(O)CCCc1ccc(N(CCCl)CCCl)cc1 [Chlorambucil, 4-[bis(2-chlorethyl)amino]benzenebutanoic acid]
terminal half-life ([2]; in vivo): 1.5 h

C[C@@H](C(=O)O)c1cccc(C(=O)c2ccccc2)c1 [R-Ketoprofen]
Density of APPs band [1]: 3.41 ± 0.39 and 2.74 ± 0.34

COc1cccc2c1C(=O)c1c(O)c3c(c(O)c1C2=O)C[C@@](O)(C(C)O)C[C@@H]3O[C@H]1C[C@H](N)[C@H](O)[C@H](C)O1 (stereo partly shown) [daunorubicinol]
elimination half-life ([2]; in vivo): about 27 hr

N.N.[Cl][Pt][Cl] [Cisplatin]
absorption (in words) ([2]; oral): not absorbed orally

COc1cccc2c1C(=O)c1c(O)c3c(c(O)c1C2=O)C[C@@](O)(C(=O)CO)C[C@@H]3O[C@H]1C[C@H](N)[C@H](O)[C@H](C)O1 [Doxorubicin, 5,12-Naphthacenedione, (8s-cis)-10-[(3-amino-2,3,6-trideoxy-a-L-lyxo-hexopyranosyl)oxy]-7,8,9,10-tetrahydro-6,8,11 trihydroxy-8-(hydroxyacetyl)-1-methoxy-hydrochloride]
absorption (in words) ([2]; in vivo, po): absorbed poorly | elimination half-life ([2]; in vivo): about 30 hr | excreted in urine ([2]; in vivo): a few percent

CC(C(=O)O)c1ccc(-c2ccccc2)c(F)c1 (racemic) [RS-Flubiprofen]
Density of APPs band [1]: 3.07 ± 0.34
